# Measurements from the supplement of paper PMC10307832.
# Assays:
# Test in all cases: relative viability (nuclei count vs DMSO), 5 days (fraction); higher = more cells survive
# [1] = compound: COc1cc2nc(N3CCCN(C)CC3)nc(NC3CCN(Cc4ccccc4)CC3)c2cc1OC + CC1(C)CCC(c2ccc(Cl)cc2)=C(CN2CCN(c3ccc(C(=O)NS(=O)(=O)c4ccc(N[C@H](CCN5CCOCC5)CSc5ccccc5)c(S(=O)(=O)C(F)(F)F)c4)cc3)CC2)C1 [Navitoclax] (partner 0.5 µM)
# Summary of the method: (§1)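 Lung cancer cell lines in 1536-well plates were dosed by pin tool the day after seeding, either with one drug alone or with a fixed anchor-drug dose plus five library-drug doses (not always all listed) in √10 steps. After 5 days, cells were fixed and their nuclei stained in one step (final 0.05% Triton X-100, 1% formaldehyde, 1 ug/ml Hoechst), then counted on 4× images. Relative viability is the nuclei count in treated wells divided by that in vehicle wells. Values are medians of duplicate plates.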
# [2] = compound: COc1cc2nc(N3CCCN(C)CC3)nc(NC3CCN(Cc4ccccc4)CC3)c2cc1OC + N=C(N)NC(=N)NCCc1ccccc1 [Phenformin] (partner 250 µM)
# Summary of the method: as §1
# [3] = compound: Cc1cc([C@@H](C)Nc2ccccc2C(=O)O)c2nc(N3CCOCC3)cc(=O)n2c1 [AZD6482] + Cc1nc(NC(=O)N2CCC[C@H]2C(N)=O)sc1-c1ccnc(C(C)(C)C(F)(F)F)c1 [Alpelisib] (partner 2 µM)
# Summary of the method: as §1
# [4] = compound: Cc1cc([C@@H](C)Nc2ccccc2C(=O)O)c2nc(N3CCOCC3)cc(=O)n2c1 [AZD6482] + Nc1nc2[nH]cc(CCc3ccc(C(=O)N[C@@H](CCC(=O)O)C(=O)O)cc3)c2c(=O)[nH]1 [Pemetrexed] (partner 0.2 µM)
# Summary of the method: as §1
cell line,measurement,setting,value
UMC-11,relative viability,[1]; first compound 0.2 µM,0.315
same,relative viability,[1]; first compound 0.6325 µM,0.333
same,relative viability,[1]; first compound 2 µM,0.317
same,relative viability,[1]; first compound 6.325 µM,0.254
same,relative viability,[2]; first compound 0.2 µM,0.322
same,relative viability,[2]; first compound 0.6325 µM,0.346
same,relative viability,[2]; first compound 2 µM,0.352
same,relative viability,[2]; first compound 6.325 µM,0.243
same,relative viability,[3]; first compound 0.08 µM,1.01
same,relative viability,[3]; first compound 0.253 µM,0.938
same,relative viability,[3]; first compound 0.8 µM,0.984
same,relative viability,[3]; first compound 2.53 µM,0.693
same,relative viability,[3]; first compound 8 µM,0.965
same,relative viability,[4]; first compound 0.08 µM,0.752
same,relative viability,[4]; first compound 0.253 µM,0.822
same,relative viability,[4]; first compound 0.8 µM,0.811
same,relative viability,[4]; first compound 2.53 µM,0.633
same,relative viability,[4]; first compound 8 µM,0.738
